Data taken from the supplement of paper PMC10307832.

How the values were obtained:
Test in all cases: relative viability (nuclei count vs DMSO), 5 days (fraction); higher = more cells survive
Irinotecan + Alpelisib = compound: CCc1c2c(nc3ccc(OC(=O)N4CCC(N5CCCCC5)CC4)cc13)-c1cc3c(c(=O)n1C2)COC(=O)[C@]3(O)CC [Irinotecan] + Cc1nc(NC(=O)N2CCC[C@H]2C(N)=O)sc1-c1ccnc(C(C)(C)C(F)(F)F)c1 [Alpelisib] (partner 2 µM)
Outline: (§1)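 Dosing by pin tool came one day after lung cancer cell lines were seeded in 1536-well plates, using either one drug or a fixed anchor-drug dose plus five library-drug doses (not always all listed) in √10 steps. After 5 days, nuclei were counted on 4× images. Relative viability is treated-well nuclei count divided by vehicle-well nuclei count, and values are medians of duplicate plates.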

MK-8033 + Vorinostat = compound: Cn1cc(-c2cnc3ccc4ccc(CS(=O)(=O)NCc5ccccn5)cc4c(=O)c3c2)cn1 [MK-8033] + O=C(CCCCCCC(=O)Nc1ccccc1)NO [Vorinostat] (partner 1 µM)
Outline: as §1

Irinotecan + Decitabine = compound: CCc1c2c(nc3ccc(OC(=O)N4CCC(N5CCCCC5)CC4)cc13)-c1cc3c(c(=O)n1C2)COC(=O)[C@]3(O)CC [Irinotecan] + Nc1ncn([C@H]2C[C@H](O)[C@@H](CO)O2)c(=O)n1 [Decitabine] (partner 2 µM)
Outline: as §1

MK-8033 + Palbociclib = compound: Cn1cc(-c2cnc3ccc4ccc(CS(=O)(=O)NCc5ccccn5)cc4c(=O)c3c2)cn1 [MK-8033] + CC(=O)c1c(C)c2cnc(Nc3ccc(N4CCNCC4)cn3)nc2n(C2CCCC2)c1=O [Palbociclib] (partner 0.5 µM)
Outline: as §1

Cell Line | relative viability (Irinotecan + Alpelisib; first compound 0.6325 µM) | relative viability (Irinotecan + Alpelisib; first compound 2 µM) | relative viability (Irinotecan + Alpelisib; first compound 6.325 µM) | relative viability (Irinotecan + Alpelisib; first compound 20 µM) | relative viability (MK-8033 + Vorinostat; first compound 0.02 µM) | relative viability (MK-8033 + Vorinostat; first compound 0.06325 µM) | relative viability (MK-8033 + Vorinostat; first compound 0.2 µM) | relative viability (MK-8033 + Vorinostat; first compound 0.6325 µM) | relative viability (MK-8033 + Vorinostat; first compound 2 µM) | relative viability (Irinotecan + Decitabine; first compound 0.6325 µM) | relative viability (Irinotecan + Decitabine; first compound 2 µM) | relative viability (Irinotecan + Decitabine; first compound 6.325 µM) | relative viability (Irinotecan + Decitabine; first compound 20 µM) | relative viability (MK-8033 + Palbociclib; first compound 0.02 µM) | relative viability (MK-8033 + Palbociclib; first compound 0.06325 µM) | relative viability (MK-8033 + Palbociclib; first compound 0.2 µM) | relative viability (MK-8033 + Palbociclib; first compound 0.6325 µM) | relative viability (MK-8033 + Palbociclib; first compound 2 µM)
NCI-H1299 | 0.919 | 0.918 | 0.801 | 0.36 |  |  |  |  |  |  |  |  |  |  |  |  |  | 
NCI-H1650 |  |  |  |  | 0.507 | 0.416 | 0.723 | 0.532 | 0.562 | 0.322 | 0.296 | 0.276 | 0.207 | 0.363 | 0.296 | 0.324 | 0.336 | 0.336
NCI-H647 | 0.816 | 0.435 | 0.197 | 0.202 | 0.633 | 0.378 | 0.527 | 0.598 | 0.75 | 0.39 | 0.238 | 0.157 | 0.159 | 0.365 | 0.338 | 0.351 | 0.404 | 0.43
NCI-H1944 | 0.58 | 0.271 | 0.168 | 0.167 | 0.6 | 0.579 | 0.625 | 0.59 | 0.568 | 0.323 | 0.206 | 0.149 | 0.151 | 0.306 | 0.316 | 0.348 | 0.324 | 0.327
NCI-H23 | 0.519 | 0.421 | 0.246 | 0.243 | 0.678 | 0.455 | 0.405 |  | 0.587 | 0.288 | 0.243 | 0.211 | 0.251 | 0.463 | 0.576 | 0.406 |  | 0.413
NCI-H1792 | 0.711 | 0.673 | 0.329 | 0.11 |  |  |  |  |  | 0.405 | 0.522 | 0.287 | 0.228 | 0.637 | 0.63 | 0.557 | 0.606 | 0.615
HCC-78 | 0.38 | 0.248 | 0.195 | 0.211 | 0.401 | 0.399 | 0.539 | 0.262 | 0.455 | 0.607 | 0.479 | 0.335 | 0.328 | 0.516 | 0.63 | 0.451 | 0.514 | 0.511
NCI-H358 | 0.628 | 0.561 | 0.311 | 0.248 | 0.79 | 0.503 | 0.579 | 0.712 | 0.614 | 0.183 | 0.193 | 0.154 | 0.0968 | 0.144 | 0.129 | 0.128 | 0.136 | 0.151
NCI-H520 | 0.751 | 0.733 | 0.282 | 0.203 | 0.636 | 0.689 | 0.777 | 0.705 | 0.657 | 0.392 | 0.396 | 0.267 | 0.195 | 0.209 | 0.231 | 0.184 | 0.254 | 0.205
BEN | 1.11 | 0.771 | 0.319 | 0.372 | 0.594 | 0.537 | 0.602 | 0.547 | 0.67 | 0.503 | 0.793 | 0.493 | 0.504 | 0.445 | 0.512 | 0.435 | 0.484 | 0.461
A-427 |  | 0.19 | 0.176 | 0.185 | 0.886 | 0.826 | 0.819 | 0.908 | 0.881 | 0.566 | 0.573 | 0.347 | 0.198 | 0.481 | 0.552 | 0.494 | 0.508 | 0.492
EMC-BAC-2 | 0.483 | 0.28 | 0.165 | 0.181 | 0.619 | 0.346 | 0.421 | 0.454 | 0.476 | 0.933 | 0.719 | 0.432 | 0.277 | 0.519 | 0.485 | 0.528 | 0.511 | 0.505
NCI-H1648 |  |  |  |  | 0.591 |  | 0.3 | 0.718 | 0.629 | 0.501 | 0.469 | 0.446 | 0.428 | 0.243 |  | 0.296 | 0.299 | 0.258
NCI-H1703 | 0.305 | 0.482 | 0.385 | 0.136 |  |  |  |  |  |  |  |  |  |  |  |  |  | 
NCI-H1563 | 0.86 | 0.912 | 0.875 | 0.654 |  |  |  |  |  |  |  |  |  |  |  |  |  | 
NCI-H2228 | 0.791 | 0.598 | 0.431 | 0.408 | 0.594 | 0.562 | 0.417 | 0.696 | 0.821 |  |  |  |  | 0.815 | 0.729 | 0.807 | 0.621 | 0.82
Calu-6 | 0.826 | 0.543 | 0.291 | 0.119 |  |  |  |  |  |  |  |  |  |  |  |  |  | 
ChaGo-K-1 |  |  |  |  | 0.769 | 0.74 | 0.729 | 0.685 | 0.687 | 0.344 | 0.251 | 0.233 | 0.239 | 0.981 | 0.937 | 0.872 | 0.974 | 0.75
IA-LM | 0.614 | 0.408 | 0.189 | 0.0631 | 0.828 | 0.976 | 0.938 | 1.01 | 0.965 |  |  |  |  |  |  |  |  | 
CAL-12T | 1.08 | 1.19 | 0.422 | 0.309 | 0.797 | 0.709 | 0.81 | 0.775 | 0.673 |  |  |  |  | 0.44 | 0.436 | 0.324 | 0.579 | 0.323
NCI-H522 |  |  |  |  | 0.796 | 0.741 | 0.829 | 0.895 | 0.942 | 0.605 | 0.492 | 0.577 | 0.636 | 0.968 | 0.96 | 1 | 0.968 | 1.18
SW 900 |  |  |  |  | 0.593 | 0.394 | 0.377 | 0.541 | 0.348 |  | 0.4 | 0.354 | 0.367 | 0.518 | 0.536 | 0.493 | 0.519 | 0.495
NCI-H596 | 0.639 | 0.548 | 0.483 | 0.557 | 0.59 | 0.629 | 0.549 | 0.64 | 0.568 | 1.06 | 0.842 | 0.85 | 1.49 |  |  |  |  | 
A549 | 0.776 | 0.642 | 0.207 | 0.0613 |  |  |  |  |  |  | 0.26 | 0.197 | 0.0737 |  |  |  |  | 
